In patent US12029713B2, “Compositions and methods for the treatment of brain injury” (THE CHILDREN'S HOSPITAL OF PHILADELPHIA, priority 2013, dated 2024):

Assays:
[1] = test system: fluid percussion injury mice; assay: Conditioned fear response (CFR) after fluid percussion injury, GTA oral gavage; assay type: in vivo, mouse; details: 5 mg/kg oral gavage for 5 days, CFR on day 7 (FIG. 5)
Experimental: A fluid percussion injury assay was performed. Briefly, a craniotomy was performed on anesthetized mice using a 3 mm trephine and a Luer-Hoc needle hub attached to the skull and capped. The following day, a fluid percussion injury device was employed to deliver a pulse of saline through the hub at a pressure between 1.4-2.14 atm, producing a mild to moderate percussion injury. Sham animals received all anesthesia and surgical procedures except for the fluid pulse.
Mice were allowed to recover for one day. Mice were then treated with 5 mg/kg of glyceryl triacetate (GTA) via oral gavage for 5 days. The conditioned fear response (CFR) assay was performed on day 7.

[2] = within one hour of administration; cited from earlier work

In the case of `CC(=O)OCC(COC(C)=O)OC(C)=O` [GTA, glyceryl triacetate], the “fear response (CFR) compared to mice receiving the brain injury without treatment” value [1] is given as “statistically superior” and the “increase of acetate levels in the brain” value [2] is given as “over 15 fold”.
